pIC50: −log10 of the molar value.
Legend:
[1] = molecular target: human recombinant JAK2 protein (Homo sapiens, UniProt O60674); assay: JAK2 activity inhibition assay (HTRF kinase detection); format: biochemical; details: 2.5 μM ATP substrate solution
Procedure: The effect of the compounds of the present invention on the activity of JAK2 was assessed by using an in vitro kinase detection assay.
The enzymatic activity of JAK2 was assessed by detecting the substrate phosphorylation level in a kinase reaction with a homogeneous time-resolved fluorescence (HTRF) kinase detection kit (Cisbio, 62TK0PEC). A reaction buffer contained an enzyme buffer (1×), 5 mM MgCl2, 1 mM DTT and 0.01% Brij35 from the kit; a human recombinant JAK2 protein (Carna Biosciences, 08-045) was diluted to a kinase reaction solution of 0.15 ng/μL with the reaction buffer; a substrate reaction solution contained 2.5 μM ATP and a biotin-labeled tyrosine kinase substrate diluted to 0.25 μM with the reaction buffer; a detection buffer contained 0.1 ng/μL Eu^3+ labeled cage antibody (Cisbio, 61T66KLB) and 12.5 nM streptavidin-labeled XL665 (Cisbio, 610SAXLB) in the reaction buffer; the compound was dissolved to 10 μM in DMSO, followed by a serial 4-fold dilution with DMSO to a minimum concentration of 0.061 nM. Each concentration was further diluted 40-fold with the reaction buffer. To a 384-well assay plate (Corning, 3674) were added 4 μL of the compound solutions having a series of concentrations and 2 μL of JAK2 kinase reaction solutions. After being mixed evenly, the mixtures were incubated at room temperature for 15 minutes, and then 4 μL of the substrate reaction solutions were added. The reaction mixtures were incubated at room temperature for 30 minutes. Then the reaction mixtures were added with 10 μL of detection solutions, mixed evenly, and allowed to stand at room temperature for 30 minutes. An Envision plate reader (Perkin Elmer) was then used to measure the progress of the reaction at wavelengths of 620 nm and 665 nm. The signal value (absorbance at 665 nm/absorbance at 620 nm) was positively correlated with the degree of substrate phosphorylation, therefore the kinase activity of JAK2 was detected. In this assay, the group without JAK2 kinase protein was the 100% inhibition group, and the group with JAK2 kinase protein but without the test compound was the 0% inhibition group. The compound inhibition curve was plotted using XLfit software and the IC50 of its inhibition was calculated.

[2] = molecular target: human recombinant TYK2 protein (Homo sapiens, UniProt P29597); assay: TYK2 activity inhibition assay (HTRF kinase detection); format: biochemical; details: 11.25 μM ATP substrate solution
Procedure: The effect of the compounds of the present invention on the activity of TYK2 was assessed by using an in vitro kinase detection assay.
The enzymatic activity of TYK2 was assessed by detecting the substrate phosphorylation level in a kinase reaction with a homogeneous time-resolved fluorescence (HTRF) kinase detection kit (Cisbio, 62TK0PEC). A reaction buffer contained an enzyme buffer (1×), 5 mM MgCl2, 1 mM DTT and 0.01% Brij35 from the kit; a human recombinant TYK2 protein (Carna Biosciences, 08-147) was diluted to a kinase reaction solution of 0.25 ng/μL with the reaction buffer; a substrate reaction solution contained 11.25 μM ATP and a biotin-labeled tyrosine kinase substrate diluted to 0.5 μM with the reaction buffer; a detection buffer contained 0.1 ng/μL Eu^3+ labeled cage antibody (Cisbio, 61T66KLB) and 25 nM streptavidin-labeled XL665 (Cisbio, 610SAXLB) in the reaction buffer; the compound was dissolved to 10 μM in DMSO, followed by a serial 4-fold dilution with DMSO to a minimum concentration of 0.061 nM. Each concentration was further diluted 40-fold with the reaction buffer. To a 384-well assay plate (Corning, 3674) were added 4 μL of the compound solutions having a series of concentrations and 2 μL of kinase reaction solutions. After being mixed evenly, the mixtures were incubated at room temperature for 15 minutes, and then 4 μL of the substrate reaction solutions were added. The reaction mixtures were incubated at room temperature for 40 minutes. Then the reaction mixtures were added with 10 μL of detection solutions, mixed evenly, and allowed to stand at room temperature for 30 minutes. An Envision plate reader (Perkin Elmer) was then used to measure the progress of the reaction at wavelengths of 620 nm and 665 nm. The signal value (absorbance at 665 nm/absorbance at 620 nm) was positively correlated with the degree of substrate phosphorylation, therefore the kinase activity of TYK2 was detected. In this assay, the group without TYK2 kinase protein was the 100% inhibition group, and the group with TYK2 kinase protein but without the test compound was the 0% inhibition group. The compound inhibition curve was plotted using XLfit software and the IC50 of its inhibition was calculated.

[3] = tested on: IL-12-induced IFN-γ secretion in NK92 cells; assay: Inhibition of IL-12-induced IFN-γ secretion in NK92 cells (ELISA); format: cell-based; details: Homo sapiens, IL-12 stimulation, 24 hours, read-out: IC50 (NK92IL12/IFN-γ)
Procedure: The effect of the compounds of the present invention on IFN-γ secretion in IL-12-induced NK92 cells was evaluated by an enzyme-linked immunosorbent assay (ELISA).
The assay principle was generally described below: IL-12R was mainly expressed in activated T-cells, NK cells (NK92 was an NK cell line), DC cells, and B-cells. When binding to IL-12, it activated the JAK2/TYK2 signal transduction pathway within NK cells and activated T lymphocytes, thereby inducing secretion of IFN-γ.
The compound was dissolved to 2.5 mM in DMSO, followed by a serial 4-fold dilution with DMSO to a minimum concentration of 0.31 μM. Each concentration was further diluted 50-fold with an FBS-free MEMα medium (Thermofisher. 12561-056).
NK92 cells (Nanjing Cobioer, CBP60980) were cultured in a complete MEMα medium containing 12.5% FBS (Ausbian, VS500T), 12.5% horse serum (Thermofisher, 16050-122), 0.02 mM folic acid (Sigma, F8758), 0.2 mM inositol (Sigma, 17850), 0.55 mM β-mercaptoethanol (Thermofish, 21985-023), 200 U/mL IL-2 (R&D Systems, 202-1L), and 100 U/mL penicillin-streptomycin mixed liquor (ThermoFisher, 15140122). When covering 80-90% of the culture container surface, the cells were dispersed and plated on a 96-well plate (ThermoFisher, 167425) with 100,000 cells per well (80 μL of the complete MEMα medium without IL-2). The 96-well plate was then incubated overnight in a 37° C., 5% CO2 incubator.
After overnight incubation, 10 μL of the compound and 10 μL of 50 ng/ml IL-12 (R &D Systems, 219-1L) were added to each well and mixed gently, and the 96-well plate was incubated in the 37° C., 5% CO2 incubator for additional 24 hours. The plate was centrifuged at 800 rpm for 10 minutes at room temperature and 50 μL of the supernatant from each well was transferred to another 96-well plate (Sigma, CLS3695) coated with anti-IFN-γ antibody. The amount of IFN-γ secretion was detected following the instruction from the Human IFN-γ DuoSet ELISA assay kit (R & D Systems, DY285B). In this assay, the group in which IL-12 and the test compound were replaced with the MEMα medium was the non-stimulated control group (100% inhibition), and the group with IL-12 and 0.2% DMSO was the stimulated control group (0% inhibition). The compound inhibition curve was plotted using XLfit software and the IC50 of its inhibition was calculated.

SMILES	pIC50 [1]	pIC50 [2]	pIC50 [3]
CS(=O)(=O)c1ccc(Nc2nc(-c3c(F)cccc3F)n3c2C(=O)NCC3)cc1 [Compound 12, 3-(2,6-difluorophenyl)-1-((4-(methylsulfonyl)phenyl)amino)-6,7-dihydroimidazo[1,5-a]pyrazin-8(5H)-one]	8.26	9.05	6.96
CC(C)(C(=O)N1CCC1)c1ccc(Nc2nc(-c3c(F)cccc3F)n3c2C(=O)NCC3)cc1 [Compound 13, 1-((4-(1-(azetidin-1-yl)-2-methyl-1-oxopropan-2-yl)phenyl)amino)-3-(2,6-difluorophenyl)-6,7-dihydroimidazo[1,5-a]pyrazin-8(5H)-one]	8.66	9.52	5.97
O=C(Cc1ccc(Nc2nc(-c3c(F)cccc3F)n3cc[nH]c(=O)c23)cc1)N1CCOCC1 [Compound 14, 3-(2,6-difluorophenyl)-1-((4-(2-morpholino-2-oxoethyl)phenyl)amino)imidazo[1,5-a]pyrazin-8(7H)-one]	9.30	9.52	6.95
O=C1NCCn2c(-c3c(F)cccc3F)nc(Nc3ccc(CC(=O)N4CCOCC4)cc3)c21 [Compound 16, 3-(2,6-difluorophenyl)-1-((4-(2-morpholino-2-oxoethyl)phenyl)amino)-6,7-dihydroimidazo[1,5-a]pyrazin-8(5H)-one]	8.31	8.70	5.84
CC(C)(C(=O)N1CCOCC1)c1ccc(Nc2nc(-c3c(F)cccc3F)n3cc[nH]c(=O)c23)cc1 [Compound 17, 3-(2,6-difluorophenyl)-1-((4-(2-methyl-1-morpholino-1-oxopropan-2-yl)phenyl)amino)imidazo[1,5-a]pyrazin-8(7H)-one]	9.52	10.00	6.28
CC(C)(C(=O)N1CCOCC1)c1ccc(Nc2nc(-c3c(F)cccc3F)n3c2C(=O)NCC3)cc1 [Compound 18, 3-(2,6-difluorophenyl)-1-((4-(2-methyl-1-morpholino-1-oxopropan-2-yl)phenyl)amino)-6,7-dihydroimidazo[1,5-a]pyrazin-8(5H)-one]	8.66	9.52	5.85
CN1CCN(C(=O)C(C)(C)c2ccc(Nc3nc(-c4c(F)cccc4F)n4cc[nH]c(=O)c34)cc2)CC1 [Compound 35, 3-(2,6-difluorophenyl)-1-((4-(2-methyl-1-(4-methylpiperazin-1-yl)-1-oxopropan-2-yl)phenyl)amino)imidazo[1,5-a]pyrazin-8(7H)-one]	9.22	9.40	6.72

Next, values leading:

pIC50 [1]	pIC50 [2]	pIC50 [3]	SMILES
8.54	9.15	6.83	Cn1cc(Nc2nc(-c3c(F)cccc3Cl)n3cc[nH]c(=O)c23)cn1 [Compound 26, 3-(2-chloro-6-fluorophenyl)-1-((1-methyl-1H-pyrazol-4-yl)amino)imidazo[1,5-a]pyrazin-8(7H)-one]
8.85	9.70	7.22	NC(=O)c1ccc(Nc2nc(-c3c(F)cccc3F)n3cc[nH]c(=O)c23)cc1 [Compound 27, 4-((3-(2,6-difluorophenyl)-8-oxo-7,8-dihydroimidazo[1,5-a]pyrazin-1-yl)amino)benzamide]
9.22	10.00	7.25	CN1CCN(C(=O)c2ccc(Nc3nc(-c4c(F)cccc4Cl)n4cc[nH]c(=O)c34)cc2)CC1 [Compound 31, 3-(2-chloro-6-fluorophenyl)-1-((4-(4-methylpiperazine-1-carbonyl)phenyl)amino)imidazo[1,5-a]pyrazin-8(7H)-one]
9.22	10.00	6.37	O=C(c1ccc(Nc2nc(-c3c(F)cccc3Cl)n3cc[nH]c(=O)c23)cc1)N1CCNCC1 [Compound 32, 3-(2-chloro-6-fluorophenyl)-1-((4-(piperazine-1-carbonyl)phenyl)amino)imidazo[1,5-a]pyrazin-8(7H)-one]
9.40	10.00	7.18	CC(C)(C(N)=O)c1ccc(Nc2nc(-c3c(F)cccc3Cl)n3cc[nH]c(=O)c23)cc1 [Compound 33, 2-(4-((3-(2-chloro-6-fluorophenyl)-8-oxo-7,8-dihydroimidazo[1,5-a]pyrazin-1-yl)amino)phenyl)-2-methylpropanamide]
9.22	9.70	6.57	CN1CCN(C(=O)C(C)(C)c2ccc(Nc3nc(-c4c(F)cccc4Cl)n4cc[nH]c(=O)c34)cc2)CC1 [Compound 37, 3-(2-chloro-6-fluorophenyl)-1-((4-(2-methyl-1-(4-methylpiperazin-1-yl)-1-oxopropan-2-yl)phenyl)amino)imidazo[1,5-a]pyrazin-8(7H)-one]
9.30	9.40	5.54	CC(C)(C(=O)N1CCNCC1)c1ccc(Nc2nc(-c3c(F)cccc3Cl)n3cc[nH]c(=O)c23)cc1 [Compound 38, 3-(2-chloro-6-fluorophenyl)-1-((4-(2-methyl-1-oxo-1-(piperazin-1-yl)propan-2-yl)phenyl)amino)imidazo[1,5-a]pyrazin-8(7H)-one]
8.35	9.30	5.39	O=C(O)c1ccc(Nc2nc(-c3c(F)cccc3F)n3cc[nH]c(=O)c23)cc1 [Compound 39, 4-((3-(2,6-difluorophenyl)-8-oxo-7,8-dihydroimidazo[1,5-a]pyrazin-1-yl)amino)benzoic acid]

Source: US20240246984A1, “HETEROCYCLIC JAK INHIBITOR” (BEIJING INNOCARE PHARMA TECH CO., LTD., priority 2020, published 2024)
